# Measurements from paper PMC4102434 (Biochemical pharmacology, 2012).
# How the values were obtained:
# Assay type in all cases: biochemical
# ces1d [1] = target: T1, ces1d (Rattus norvegicus, UniProt P16303); test: p-nitrophenylacetate hydrolysis, absorbance at […] nm; conditions: read-out: % inhibition at 10 nM
# T1 sequence (P16303 19-565): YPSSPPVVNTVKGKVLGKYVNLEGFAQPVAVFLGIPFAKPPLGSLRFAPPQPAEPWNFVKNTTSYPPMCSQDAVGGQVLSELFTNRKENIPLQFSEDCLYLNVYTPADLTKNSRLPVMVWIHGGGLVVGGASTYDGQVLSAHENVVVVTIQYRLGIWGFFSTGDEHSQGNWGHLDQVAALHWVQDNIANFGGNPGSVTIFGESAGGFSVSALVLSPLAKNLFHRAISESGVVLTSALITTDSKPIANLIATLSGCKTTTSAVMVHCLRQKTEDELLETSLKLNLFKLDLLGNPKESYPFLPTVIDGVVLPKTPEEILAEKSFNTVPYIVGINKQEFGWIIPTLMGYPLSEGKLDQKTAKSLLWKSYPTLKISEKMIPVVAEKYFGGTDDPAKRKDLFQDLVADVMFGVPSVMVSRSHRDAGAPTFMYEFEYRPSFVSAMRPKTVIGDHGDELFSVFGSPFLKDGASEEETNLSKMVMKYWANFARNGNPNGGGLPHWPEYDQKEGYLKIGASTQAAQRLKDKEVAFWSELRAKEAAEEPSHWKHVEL
# ces2e [2] = target: T2, ces2e (Mus musculus, UniProt Q8BK48); test: as above; conditions: read-out: % inhibition at 1 nM
# T2 sequence (Q8BK48 27-559): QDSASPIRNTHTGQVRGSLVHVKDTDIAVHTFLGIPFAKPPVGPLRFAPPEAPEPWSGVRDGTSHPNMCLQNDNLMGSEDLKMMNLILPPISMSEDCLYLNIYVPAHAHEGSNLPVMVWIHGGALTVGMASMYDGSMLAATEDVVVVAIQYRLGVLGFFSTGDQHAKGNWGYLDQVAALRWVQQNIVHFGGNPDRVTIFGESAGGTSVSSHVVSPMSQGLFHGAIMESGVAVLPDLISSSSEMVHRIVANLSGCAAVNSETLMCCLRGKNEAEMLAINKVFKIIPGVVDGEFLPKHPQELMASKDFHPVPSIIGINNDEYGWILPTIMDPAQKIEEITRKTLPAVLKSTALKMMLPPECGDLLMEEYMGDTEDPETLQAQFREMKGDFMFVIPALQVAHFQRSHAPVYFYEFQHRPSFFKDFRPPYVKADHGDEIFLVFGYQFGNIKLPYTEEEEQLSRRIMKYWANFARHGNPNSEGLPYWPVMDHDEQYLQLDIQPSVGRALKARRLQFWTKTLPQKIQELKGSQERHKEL
# ces1e [3] = target: T3, ces1e (Rattus norvegicus, UniProt Q63108); test: as above; conditions: read-out: % inhibition at 10 nM
# T3 sequence (Q63108 19-561): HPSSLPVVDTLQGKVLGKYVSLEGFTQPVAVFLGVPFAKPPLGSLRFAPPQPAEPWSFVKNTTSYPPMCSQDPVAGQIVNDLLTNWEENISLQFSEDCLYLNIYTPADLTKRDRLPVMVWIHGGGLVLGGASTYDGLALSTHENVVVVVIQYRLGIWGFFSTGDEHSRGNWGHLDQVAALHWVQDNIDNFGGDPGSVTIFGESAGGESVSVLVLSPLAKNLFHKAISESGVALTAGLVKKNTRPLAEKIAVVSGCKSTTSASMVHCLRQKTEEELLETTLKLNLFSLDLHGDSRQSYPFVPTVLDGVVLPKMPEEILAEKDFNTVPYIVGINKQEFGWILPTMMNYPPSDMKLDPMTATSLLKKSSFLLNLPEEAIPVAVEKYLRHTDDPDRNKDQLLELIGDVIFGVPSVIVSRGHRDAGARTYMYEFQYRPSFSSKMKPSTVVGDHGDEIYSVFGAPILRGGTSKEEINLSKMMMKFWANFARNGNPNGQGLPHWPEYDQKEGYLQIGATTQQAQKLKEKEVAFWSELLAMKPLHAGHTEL
# ces1d [4] = target: T4, ces1d (Mus musculus, UniProt Q8VCT4); test: as above; conditions: read-out: % inhibition at 1 nM
# T4 sequence (Q8VCT4 19-565): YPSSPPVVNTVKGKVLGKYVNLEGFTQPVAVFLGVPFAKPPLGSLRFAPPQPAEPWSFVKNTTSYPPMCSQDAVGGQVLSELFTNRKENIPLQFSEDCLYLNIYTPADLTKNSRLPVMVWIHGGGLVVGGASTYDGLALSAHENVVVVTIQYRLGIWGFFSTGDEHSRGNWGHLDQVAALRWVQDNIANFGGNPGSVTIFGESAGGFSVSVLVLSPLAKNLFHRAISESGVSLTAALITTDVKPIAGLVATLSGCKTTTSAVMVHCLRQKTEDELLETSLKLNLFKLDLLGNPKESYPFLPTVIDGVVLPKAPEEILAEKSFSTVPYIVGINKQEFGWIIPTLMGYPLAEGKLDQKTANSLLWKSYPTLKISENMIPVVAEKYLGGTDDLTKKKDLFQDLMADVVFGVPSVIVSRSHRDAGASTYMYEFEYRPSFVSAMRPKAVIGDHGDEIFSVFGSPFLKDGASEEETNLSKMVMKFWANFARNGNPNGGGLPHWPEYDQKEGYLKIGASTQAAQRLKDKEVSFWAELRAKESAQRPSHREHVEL
# CES1 [5] = target: T5, CES1 (Homo sapiens, UniProt P23141); test: as above; conditions: read-out: % inhibition at 100 nM
# T5 sequence (P23141 18-567): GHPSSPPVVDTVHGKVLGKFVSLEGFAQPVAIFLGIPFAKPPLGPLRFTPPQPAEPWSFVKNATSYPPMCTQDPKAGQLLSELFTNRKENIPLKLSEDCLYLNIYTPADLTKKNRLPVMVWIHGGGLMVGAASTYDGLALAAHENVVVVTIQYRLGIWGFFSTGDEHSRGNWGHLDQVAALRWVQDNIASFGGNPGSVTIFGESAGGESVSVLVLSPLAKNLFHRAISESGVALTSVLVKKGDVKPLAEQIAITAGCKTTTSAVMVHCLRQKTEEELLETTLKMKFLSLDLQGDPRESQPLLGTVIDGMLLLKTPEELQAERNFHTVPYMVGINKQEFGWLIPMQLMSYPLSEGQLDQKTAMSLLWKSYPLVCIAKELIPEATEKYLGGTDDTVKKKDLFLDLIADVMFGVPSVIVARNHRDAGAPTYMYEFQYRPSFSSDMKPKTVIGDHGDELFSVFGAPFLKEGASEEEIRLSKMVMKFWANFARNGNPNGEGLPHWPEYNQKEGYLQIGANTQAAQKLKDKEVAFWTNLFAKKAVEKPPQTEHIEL
# ces2c [6] = target: T6, ces2c (Mus musculus, UniProt Q91WG0); test: as above; conditions: read-out: % inhibition at 1 nM
# T6 sequence (Q91WG0 27-561): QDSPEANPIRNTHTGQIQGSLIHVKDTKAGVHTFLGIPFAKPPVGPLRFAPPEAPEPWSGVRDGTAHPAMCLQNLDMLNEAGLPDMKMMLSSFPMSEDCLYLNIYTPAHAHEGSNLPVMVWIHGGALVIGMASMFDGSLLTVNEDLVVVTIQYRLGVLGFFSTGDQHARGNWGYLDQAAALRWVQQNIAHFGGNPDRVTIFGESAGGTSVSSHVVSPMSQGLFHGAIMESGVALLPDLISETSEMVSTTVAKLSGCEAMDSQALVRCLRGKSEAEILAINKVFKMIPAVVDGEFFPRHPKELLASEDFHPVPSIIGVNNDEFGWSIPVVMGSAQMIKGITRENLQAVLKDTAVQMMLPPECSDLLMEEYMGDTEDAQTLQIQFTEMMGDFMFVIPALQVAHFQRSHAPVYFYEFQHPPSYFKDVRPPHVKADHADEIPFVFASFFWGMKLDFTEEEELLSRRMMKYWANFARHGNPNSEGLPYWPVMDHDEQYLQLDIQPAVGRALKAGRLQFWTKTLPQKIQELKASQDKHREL
# ces2c [7] = target: T6, ces2c; test: hydrolysis, absorbance at […] nm; conditions: 293T lysate, potassium phosphate pH 7.4
# ces1d [8] = target: T4, ces1d; test: hydrolysis, absorbance at […] nm; conditions: 293T lysate, potassium phosphate pH 7.4
# ces1e [9] = target: T3, ces1e; test: hydrolysis, absorbance at […] nm; conditions: 293T lysate, potassium phosphate pH 7.4
# ces1d [10] = target: T1, ces1d; test: hydrolysis, absorbance at […] nm; conditions: 293T lysate, potassium phosphate pH 7.4
# ces2e [11] = target: T2, ces2e; test: hydrolysis, absorbance at […] nm; conditions: 293T lysate, potassium phosphate pH 7.4
# CES2 = target: T7, CES2 (Homo sapiens, UniProt O00748); test: hydrolysis, absorbance at […] nm; conditions: 293T lysate, potassium phosphate pH 7.4
# T7 sequence (O00748 27-559): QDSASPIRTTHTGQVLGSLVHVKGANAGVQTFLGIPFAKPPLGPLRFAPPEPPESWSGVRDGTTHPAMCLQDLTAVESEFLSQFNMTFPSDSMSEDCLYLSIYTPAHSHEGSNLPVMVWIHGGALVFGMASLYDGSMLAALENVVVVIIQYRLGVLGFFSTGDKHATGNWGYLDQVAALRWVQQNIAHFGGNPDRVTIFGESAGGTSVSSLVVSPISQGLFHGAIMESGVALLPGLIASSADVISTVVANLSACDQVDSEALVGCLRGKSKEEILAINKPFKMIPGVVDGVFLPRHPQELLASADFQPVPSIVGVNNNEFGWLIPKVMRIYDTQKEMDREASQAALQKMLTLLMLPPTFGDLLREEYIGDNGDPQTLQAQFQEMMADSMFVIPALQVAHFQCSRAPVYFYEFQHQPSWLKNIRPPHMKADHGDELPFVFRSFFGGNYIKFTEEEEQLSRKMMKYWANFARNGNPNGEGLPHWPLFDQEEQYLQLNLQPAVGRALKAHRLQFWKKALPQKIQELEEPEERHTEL
# CES1 [12] = target: T5, CES1; test: hydrolysis, absorbance at […] nm; conditions: 293T lysate, potassium phosphate pH 7.4
Compound,inhibition at 0.01 µM (ces1d [1]) [%],inhibition at 0.001 µM (ces2e [2]) [%],inhibition at 0.01 µM (ces1e [3]) [%],inhibition at 0.001 µM (ces1d [4]) [%],inhibition at 0.1 µM (CES1 [5]) [%],inhibition at 0.001 µM (ces2c [6]) [%],"hydrolysis, absorbance at 400 nm (ces2c [7])","hydrolysis, absorbance at 400 nm (ces1d [8])","hydrolysis, absorbance at 400 nm (ces1e [9])","hydrolysis, absorbance at 400 nm (ces1d [10])","hydrolysis, absorbance at 400 nm (ces2e [11])","hydrolysis, absorbance at 400 nm (CES2)","hydrolysis, absorbance at 400 nm (CES1 [12])"
CCCCCCCCCCC[C@@H](C[C@@H]1OC(=O)[C@H]1CCCCCC)OC(=O)[C@H](CC(C)C)NC=O [orlistat],20,55,20,12,~30,90,–,–,–,–,–,–,–
CC(=O)Oc1ccc([N+](=O)[O-])cc1 [p-nitrophenylacetate],–,–,–,–,–,–,"Inhibition of p-nitrophenylacetate hydrolysis of recombinant carboxylesterases from human (A), mouse (B) or rat","Inhibition of p-nitrophenylacetate hydrolysis of recombinant carboxylesterases from human (A), mouse (B) or rat","Inhibition of p-nitrophenylacetate hydrolysis of recombinant carboxylesterases from human (A), mouse (B) or rat","Inhibition of p-nitrophenylacetate hydrolysis of recombinant carboxylesterases from human (A), mouse (B) or rat","Inhibition of p-nitrophenylacetate hydrolysis of recombinant carboxylesterases from human (A), mouse (B) or rat","Inhibition of p-nitrophenylacetate hydrolysis of recombinant carboxylesterases from human (A), mouse (B) or rat","Inhibition of p-nitrophenylacetate hydrolysis of recombinant carboxylesterases from human (A), mouse (B) or rat"
